{
  "source": "patent US20050202089A1",
  "about": "(SANOFI-SYNTHELABO, priority 1996, published 2005)",
  "assay": "solubility of mizolastine in water",
  "data": [
    {"substance": "2-[[1-[1-[(4-fluorophenyl)methyl]-1H-benzimidazol-2-yl]piperid-4-yl]methylamino]-pyrimidin-4-ol [mizolastine]", "values": [
      {"measurement": "solubility in water", "setting": "neutral pH", "result": 13, "unit": "µg/mL"},
      {"measurement": "solubility", "setting": "pH 3", "result": 11000, "unit": "µg/mL"}
    ]}
  ]
}
